PubChem BioAssay (NCI)
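Briefly, cells in 96-well plates were exposed to five compound concentrations for 48 h, and endpoints were estimated by linear interpolation. TGI marks complete inhibition of growth.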

Tests used:
Experiment in all cases: growth of human tumour cells (NCI), 48 h
DMS 273 small cell lung = system: DMS 273 small cell lung
A549 NSCLC = system: A549 NSCLC
DLD-1 colon = system: DLD-1 colon
LXFL 529 NSCLC = system: LXFL 529 NSCLC
SK-OV-3 ovarian = system: SK-OV-3 ovarian
SNB-78 CNS = system: SNB-78 CNS
HOP-18 NSCLC = system: HOP-18 NSCLC
OVCAR-3 ovarian = system: OVCAR-3 ovarian
NCI-H522 lung = system: NCI-H522 lung
DMS 114 small cell lung = system: DMS 114 small cell lung
KM20L2 colon = system: KM20L2 colon
RXF-631 renal = system: RXF-631 renal
M19-MEL melanoma = system: M19-MEL melanoma
IGROV1 ovarian = system: IGROV1 ovarian
XF 498 CNS = system: XF 498 CNS

SMILES | TGI (DMS 273 small cell lung) | TGI (A549 NSCLC) | TGI (DLD-1 colon) | TGI (LXFL 529 NSCLC) | TGI (SK-OV-3 ovarian) | TGI (SNB-78 CNS) | TGI (HOP-18 NSCLC) | TGI (OVCAR-3 ovarian) | TGI (NCI-H522 lung) | TGI (DMS 114 small cell lung) | TGI (KM20L2 colon) | TGI (RXF-631 renal) | TGI (M19-MEL melanoma) | TGI (IGROV1 ovarian) | TGI (XF 498 CNS)
COC1=CC(=O)C2C(C1=O)[C@@H]1c3ccccc3OC[C@H]21 (some centres not stated) | > 100 µM | > 100 µM | > 100 µM | > 100 µM | > 100 µM | > 100 µM | > 100 µM | > 100 µM | > 100 µM | > 100 µM | > 100 µM | – | – | – | –
Cc1ccc(C(=O)C(C)N)cc1C (configuration not stated) | – | > 100 µM | > 100 µM | > 100 µM | > 100 µM | – | – | > 100 µM | > 100 µM | > 100 µM | > 100 µM | > 100 µM | > 100 µM | > 100 µM | > 100 µM
COc1cc2c(cc1OC)C(=O)N1CCCC1C(=O)S2 (configuration not stated) | > 100 µM | > 100 µM | > 100 µM | > 100 µM | > 100 µM | > 100 µM | > 100 µM | > 100 µM | > 100 µM | > 100 µM | > 100 µM | – | – | > 100 µM | > 100 µM
NCCSc1nc(N)c2ncn(C3OC(CO)C(O)C3O)c2n1 (configuration not stated) | > 100 µM | > 100 µM | > 100 µM | – | > 100 µM | > 100 µM | > 100 µM | > 100 µM | > 100 µM | > 100 µM | > 100 µM | – | > 100 µM | > 100 µM | > 100 µM
O=c1cc(-c2cccc(Br)c2)[nH]c2cc3c(cc12)OCO3 | 22.4 µM | 25.2 µM | 31.2 µM | 18.6 µM | 17 µM | 20.5 µM | 46.7 µM | 9.5 µM | 18.3 µM | 11 µM | – | – | > 100 µM | 11.8 µM | 14.5 µM
C#CC1(O)CC(c2ccccc2)N(C)C(c2ccccc2)C1 (configuration not stated) | > 100 µM | > 100 µM | – | > 100 µM | > 100 µM | > 100 µM | – | > 100 µM | > 100 µM | > 100 µM | > 100 µM | > 100 µM | > 100 µM | > 100 µM | –
CCN1CCC(O)(/C=C/c2ccc(Cl)cc2)C(C(=O)/C=C/c2ccc(Cl)cc2)C1 (configuration not stated) | 60.2 µM | 92.5 µM | 33.8 µM | 28 µM | 61.7 µM | > 100 µM | – | 40.2 µM | 81.5 µM | > 100 µM | 99.3 µM | – | 92.9 µM | 62.6 µM | > 100 µM
O=c1[nH]c(Br)nc2c(N3CCCCC3)c[nH]c12 | > 100 µM | > 100 µM | > 100 µM | > 100 µM | > 100 µM | > 100 µM | > 100 µM | > 100 µM | 81.8 µM | > 100 µM | > 100 µM | – | > 100 µM | > 100 µM | > 100 µM
C/C(CC(O)(C(F)(F)F)C(F)(F)F)=N/Nc1ccc([N+](=O)[O-])cc1[N+](=O)[O-] | – | > 10 µM | – | – | 6.3 µM | – | – | 8.33 µM | > 10 µM | – | – | – | – | > 10 µM | –
O=c1ccc2nc3ccc(O)cc3oc-2c1 | – | > 100 µM | – | – | > 100 µM | – | – | > 85.7 µM | > 73.5 µM | – | – | – | – | > 100 µM | –
Cc1nc2c(s/c(=N\N)n2-c2ccccc2)c(=O)n1C | > 100 µM | > 100 µM | – | > 100 µM | > 100 µM | > 100 µM | – | – | > 100 µM | > 100 µM | > 100 µM | – | > 100 µM | > 100 µM | > 100 µM
CC(C)[C@H]1NC(=O)[C@H]2N=C(O[C@@H]2C)[C@@H]2CCCN2C(=O)[C@H](Cc2ccccc2)NC(=O)[C@@H]2COC(=N2)[C@@H](Cc2ccccc2)NC(=O)[C@@H]2COC1=N2 | – | > 100 µM | – | – | > 100 µM | – | – | > 100 µM | > 100 µM | – | – | – | – | > 100 µM | –
O[C@H]1[C@@H]2OC[C@@H](O)[C@H](OCc3ccccc3)[C@@](COCc3ccccc3)(O2)[C@@H]1OCc1ccccc1 | – | 33.3 µM | – | – | 36.6 µM | – | – | 19.4 µM | 27.7 µM | – | – | – | – | 27.5 µM | –
